{"source": "ChEMBL document CHEMBL1151822", "about": "“Saldedines A and B, dibromo proaporphine alkaloids from a Madagascan tunicate” (J Nat Prod, 2009)", "assay": "Toxicity in Artemia salina", "format": "organism-based", "conditions": "in vivo, read-out: LD50 (the source's name)", "data": [{"compound": "COc1cc2c3c(c1O)C1(C=C(Br)C(O)C(Br)=C1)C[C@@H]3N(C)CC2", "note": "(some centres not stated) [SALDEDINE B]", "values": [{"measurement": "LC50", "value": 10.9, "unit": "µM"}]}, {"compound": "COc1cc2c3c(c1O)C1(C=C(Br)C(=O)C(Br)=C1)C[C@@H]3N(C)CC2", "note": "[SALDEDINE A]", "values": [{"measurement": "LC50", "value": 4.4, "unit": "µM"}]}]}
